According to the supplement of paper PMC6965134:
± gives the standard deviation of the averaged measurements.

Assay: TIMS collisional cross section (CCS, N2) of the lipid ion; higher = larger ion cross section
Settings: ionization mode: positive, one isomer drawn

SMILES: CCCCCCCCCCCCCCCCC(=O)OC[C@@H](COC(=O)CCCCCCCCCCCCCC)OC(=O)CCCCCCCCCCCCCCC [TG 15:0_16:0_17:0] (ion (formula + adduct): [C51H98O6+NH4] 1+)
- TIMS collisional cross section (sample type: HeLa): 314.3 Å²
- TIMS collisional cross section (sample type: plasma): 314.6 ± 0.22 Å²

SMILES: CCCCCCC/C=C\CCCCCCCC(=O)OC[C@@H](COC(=O)CCCCCCCCCCCCCC)OC(=O)CCCCCCCCCCCCCCC [TG 15:0_16:0_17:1] (ion (formula + adduct): [C51H96O6+NH4] 1+)
- TIMS collisional cross section (sample type: Liver): 311.4 Å²

SMILES: CCCCCCCCCCCCCCCCCC(=O)OC[C@@H](COC(=O)CCCCCCCCCCCCCC)OC(=O)CCCCCCCCCCCCCCC [TG 15:0_16:0_18:0] (ion (formula + adduct): [C52H100O6+NH4] 1+)
- TIMS collisional cross section (sample type: plasma): 317.33 ± 0.31 Å²

SMILES: CCCCCCCC/C=C\CCCCCCCC(=O)OC[C@@H](COC(=O)CCCCCCCCCCCCCC)OC(=O)CCCCCCCCCCCCCCC [TG 15:0_16:0_18:1] (ion (formula + adduct): [C52H98O6+NH4] 1+)
- TIMS collisional cross section (sample type: HeLa): 315.2 Å²
- TIMS collisional cross section (sample type: plasma): 315.47 ± 0.058 Å²

SMILES: CCCCC/C=C\C/C=C\CCCCCCCC(=O)OC[C@@H](COC(=O)CCCCCCCCCCCCCC)OC(=O)CCCCCCCCCCCCCCC [TG 15:0_16:0_18:2] (ion (formula + adduct): [C52H96O6+NH4] 1+)
- TIMS collisional cross section (sample type: Liver): 312.6 Å²

SMILES: CCCCCCCCCCCCCCCCCCCCCC(=O)OC[C@@H](COC(=O)CCCCCCCCCCCCCC)OC(=O)CCCCCCCCCCCCCCC [TG 15:0_16:0_22:0] (ion (formula + adduct): [C56H108O6+NH4] 1+)
- TIMS collisional cross section (sample type: plasma): 328.3 Å²

SMILES: CCCCCC/C=C\CCCCCCCC(=O)O[C@H](COC(=O)CCCCCCCCCCCCCC)COC(=O)CCCCCCCCCCCCCCCC [TG 15:0_16:1_17:0] (ion (formula + adduct): [C51H96O6+NH4] 1+)
- TIMS collisional cross section (sample type: Liver): 312.5 Å²

SMILES: CCCCCC/C=C\CCCCCCCC(=O)O[C@@H](COC(=O)CCCCCCC/C=C\CCCCCCCC)COC(=O)CCCCCCCCCCCCCC [TG 15:0_16:1_18:1] (ion (formula + adduct): [C52H96O6+NH4] 1+)
- TIMS collisional cross section (sample type: HeLa): 312.9 Å²
- TIMS collisional cross section (sample type: plasma): 312.8 ± 0.14 Å²

SMILES: CCCCC/C=C\C/C=C\CCCCCCCC(=O)OC[C@@H](COC(=O)CCCCCCCCCCCCCC)OC(=O)CCCCCCC/C=C\CCCCCC [TG 15:0_16:1_18:2] (ion (formula + adduct): [C52H94O6+NH4] 1+)
- TIMS collisional cross section (sample type: Liver): 310.7 ± 0.99 Å²
- TIMS collisional cross section (sample type: plasma): 310.4 Å²

SMILES: CCCCCCC/C=C\CCCCCCCC(=O)O[C@@H](COC(=O)CCCCCCC/C=C\CCCCCCCC)COC(=O)CCCCCCCCCCCCCC [TG 15:0_17:1_18:1] (ion (formula + adduct): [C53H98O6+NH4] 1+)
- TIMS collisional cross section (sample type: HeLa): 315.9 Å²

SMILES: CCCCC/C=C\C/C=C\CCCCCCCC(=O)OC[C@@H](COC(=O)CCCCCCCCCCCCCC)OC(=O)CCCCCCC/C=C\CCCCCCCC [TG 15:0_18:1_18:2] (ion (formula + adduct): [C54H98O6+NH4] 1+)
- TIMS collisional cross section (sample type: plasma): 316.6 Å²

SMILES: CCCCC/C=C\C/C=C\C/C=C\CCCCC(=O)OC[C@@H](COC(=O)CCCCCCCCCCCCCC)OC(=O)CCCCCCC/C=C\C/C=C\CCCCC [TG 15:0_18:2_18:3] (ion (formula + adduct): [C54H94O6+NH4] 1+)
- TIMS collisional cross section (sample type: Liver): 312.7 Å²
- TIMS collisional cross section (sample type: plasma): 312.8 Å²

SMILES: CCCCC/C=C\CCCCCCCC(=O)OC[C@H](COC(=O)CCCCCCCCCCCCCCC)OC(=O)CCCCCCCCCCCCCCC [TG 15:1_16:0_16:0] (ion (formula + adduct): [C50H94O6+NH4] 1+)
- TIMS collisional cross section (sample type: Liver): 309.7 Å²

SMILES: CCCCC/C=C\CCCCCCCC(=O)OC[C@H](COC(=O)CCCCCCC/C=C\CCCCCC)OC(=O)CCCCCCCCCCCCCCC [TG 15:1_16:0_16:1] (ion (formula + adduct): [C50H92O6+NH4] 1+)
- TIMS collisional cross section (sample type: Liver): 307.4 Å²
- TIMS collisional cross section (sample type: plasma): 307.1 Å²

SMILES: CCCCC/C=C\C/C=C\CCCCCCCC(=O)OC[C@@H](COC(=O)CCCCCCC/C=C\CCCCC)OC(=O)CCCCCCCCCCCCCCC [TG 15:1_16:0_18:2] (ion (formula + adduct): [C52H94O6+NH4] 1+)
- TIMS collisional cross section (sample type: plasma): 311 Å²

SMILES: CCCCC/C=C\CCCCCCCC(=O)OC[C@H](COC(=O)CCCCCCC/C=C\CCCCCC)OC(=O)CCCCCCC/C=C\CCCCCC [TG 15:1_16:1_16:1] (ion (formula + adduct): [C50H90O6+NH4] 1+)
- TIMS collisional cross section (sample type: HeLa): 305 Å²

SMILES: CCCCC/C=C\CCCCCCCC(=O)OC[C@H](COC(=O)CCCCCCCCCCCCCCCC)OC(=O)CCCCCCC/C=C\CCCCCC [TG 15:1_16:1_17:0] (ion (formula + adduct): [C51H94O6+NH4] 1+)
- TIMS collisional cross section (sample type: Liver): 309.9 Å²

SMILES: CCCCC/C=C\CCCCCCCC(=O)OC[C@H](COC(=O)CCCCCCC/C=C\CCCCCCC)OC(=O)CCCCCCC/C=C\CCCCCC [TG 15:1_16:1_17:1] (ion (formula + adduct): [C51H92O6+NH4] 1+)
- TIMS collisional cross section (sample type: Liver): 308.7 Å²

SMILES: CCCCC/C=C\CCCCCCCC(=O)OC[C@H](COC(=O)CCCCCCC/C=C\CCCCCCCC)OC(=O)CCCCCCC/C=C\CCCCCC [TG 15:1_16:1_18:1] (ion (formula + adduct): [C52H94O6+NH4] 1+)
- TIMS collisional cross section (sample type: HeLa): 310.8 Å²
- TIMS collisional cross section (sample type: Liver): 312.2 Å²

SMILES: CCCCC/C=C\C/C=C\CCCCCCCC(=O)OC[C@@H](COC(=O)CCCCCCC/C=C\CCCCC)OC(=O)CCCCCCC/C=C\CCCCCC [TG 15:1_16:1_18:2] (ion (formula + adduct): [C52H92O6+NH4] 1+)
- TIMS collisional cross section (sample type: HeLa): 308.4 Å²

SMILES: C(OC(=O)CCCCCCCCCCCCCCC)[C@]([H])(OC(CCCCCCCCCCCCCCC)=O)COC(CCCCCCCCCCCCCCC)=O [TG 16:0_16:0_16:0] (ion (formula + adduct): [C51H98O6+NH4] 1+)
- TIMS collisional cross section (sample type: plasma): 314.45 ± 0.21 Å²

SMILES: CCCCCC/C=C\CCCCCCCC(=O)OC[C@@H](COC(=O)CCCCCCCCCCCCCCC)OC(=O)CCCCCCCCCCCCCCC [TG 16:0_16:0_16:1] (ion (formula + adduct): [C51H96O6+NH4] 1+)
- TIMS collisional cross section (sample type: HeLa): 311.7 Å²

SMILES: CCCCCCCCCCCCCCCCC(=O)OC[C@@H](COC(=O)CCCCCCCCCCCCCCC)OC(=O)CCCCCCCCCCCCCCC [TG 16:0_16:0_17:0] (ion (formula + adduct): [C52H100O6+NH4] 1+)
- TIMS collisional cross section (sample type: HeLa): 317.5 Å²
- TIMS collisional cross section (sample type: Liver): 317.6 Å²
- TIMS collisional cross section (sample type: plasma): 317.6 Å²

SMILES: CCCCCCC/C=C\CCCCCCCC(=O)OC[C@@H](COC(=O)CCCCCCCCCCCCCCC)OC(=O)CCCCCCCCCCCCCCC [TG 16:0_16:0_17:1] (ion (formula + adduct): [C52H98O6+NH4] 1+)
- TIMS collisional cross section (sample type: Liver): 315.2 Å²

SMILES: CCCCCCCCCCCCCCCCCC(=O)OC[C@@H](COC(=O)CCCCCCCCCCCCCCC)OC(=O)CCCCCCCCCCCCCCC [TG 16:0_16:0_18:0] (ion (formula + adduct): [C53H102O6+NH4] 1+)
- TIMS collisional cross section (sample type: HeLa): 319.9 Å²
- TIMS collisional cross section (sample type: Liver): 320.7 Å²
- TIMS collisional cross section (sample type: plasma): 320.25 ± 0.35 Å²
